Data as given in ChEMBL document CHEMBL3885861, “Open TG-GATES”.

Organism: Rattus norvegicus
Assay: Open TG-GATES - Regimen: Single
Assay type: toxicity, organism-based, Sprague-Dawley
Set-up: regimen Single, gender Male, age 6 weeks
Details: in vivo, po, 300 mg/kg, route gavage, dose level High; for APTT / Bas / Eos / Fbg / Hb / Ht / Lym / MCH / MCHC / MCV / Mono / Neu / PT / Plat / RBC / Ret / WBC: tissue Blood; for KIDNEY_L / KIDNEY_R / KIDNEY_TOTAL: tissue Kidney; for LIVER: tissue Liver; for A/G / ALP / ALT / AST / BUN / CRE / Ca / Cl / DBIL / GLC / IP / K / LDH / Na / PL / RALB / TBIL / TC / TG / TP / gamma-GTP: tissue Plasma

Nc1ccc(Cc2ccc(N)cc2)cc1
TERMINAL_BW (3 h): 208.2 g | APTT (3 h): 15.8 s | Bas (3 h): 0% | Eos (3 h): 0.8% | Fbg (3 h): 257.6 mg/dL | Hb (3 h): 13.2 g/dL | Ht (3 h): 38.1% | Lym (3 h): 67.2% | MCH (3 h): 22 pg | MCHC (3 h): 34.5% | MCV (3 h): 63.6 fL | Mono (3 h): 6% | Neu (3 h): 25.6% | PT (3 h): 12.1 s | Plat (3 h): 142.6 x10_4/uL | RBC (3 h): 600 x10_4/ul | Ret (3 h): 8.7% | WBC (3 h): 64.7 x10_2/uL | KIDNEY_L (3 h): 0.9 g | KIDNEY_R (3 h): 0.9 g | KIDNEY_TOTAL (3 h): 1.8 g | LIVER (3 h): 9 g | A/G (3 h): 0.8 | ALP (3 h): 1363.8 IU/L | ALT (3 h): 64 IU/L | AST (3 h): 137.4 IU/L | BUN (3 h): 10.6 mg/dL | CRE (3 h): 0.2 mg/dL | Ca (3 h): 10.5 mg/dL | Cl (3 h): 102 meq/L | DBIL (3 h): 0.094 mg/dL | GLC (3 h): 183.4 mg/dL | IP (3 h): 9.4 mg/dL | K (3 h): 4 meq/L | LDH (3 h): 175.4 IU/L | Na (3 h): 139.8 meq/L | PL (3 h): 170.8 mg/dL | RALB (3 h): 2.5 g/dL | TBIL (3 h): 0.2 mg/dL | TC (3 h): 81.4 mg/dL | TG (3 h): 79 mg/dL | TP (3 h): 5.4 g/dL | gamma-GTP (3 h): 2.6 IU/L | TERMINAL_BW (6 h): 207.7 g | APTT (6 h): 15.1 s | Bas (6 h): 0% | Eos (6 h): 0.6% | Fbg (6 h): 257.4 mg/dL | Hb (6 h): 13.3 g/dL | Ht (6 h): 38.2% | Lym (6 h): 60.6% | MCH (6 h): 21 pg | MCHC (6 h): 34.8% | MCV (6 h): 60.2 fL | Mono (6 h): 3.4% | Neu (6 h): 34.6% | PT (6 h): 11.9 s | Plat (6 h): 133.9 x10_4/uL | RBC (6 h): 634.6 x10_4/ul | Ret (6 h): 7.3% | WBC (6 h): 78.7 x10_2/uL | KIDNEY_L (6 h): 0.9 g | KIDNEY_R (6 h): 0.9 g | KIDNEY_TOTAL (6 h): 1.9 g | LIVER (6 h): 8.9 g | A/G (6 h): 0.8 | ALP (6 h): 1513.4 IU/L | ALT (6 h): 67 IU/L | AST (6 h): 168.6 IU/L | BUN (6 h): 11.8 mg/dL | CRE (6 h): 0.2 mg/dL | Ca (6 h): 10.2 mg/dL | Cl (6 h): 100.8 meq/L | DBIL (6 h): 0.4 mg/dL | GLC (6 h): 172.6 mg/dL | IP (6 h): 9.1 mg/dL | K (6 h): 4.2 meq/L | LDH (6 h): 196.8 IU/L | Na (6 h): 140.8 meq/L | PL (6 h): 152.8 mg/dL | RALB (6 h): 2.3 g/dL | TBIL (6 h): 0.6 mg/dL | TC (6 h): 79.8 mg/dL | TG (6 h): 42.6 mg/dL | TP (6 h): 5.1 g/dL | gamma-GTP (6 h): 5 IU/L | TERMINAL_BW (9 h): 208 g | APTT (9 h): 13.8 s | Bas (9 h): 0% | Eos (9 h): 0.4% | Fbg (9 h): 257 mg/dL | Hb (9 h): 12.6 g/dL | Ht (9 h): 35.8% | Lym (9 h): 52.2% | MCH (9 h): 21.1 pg | MCHC (9 h): 35.1% | MCV (9 h): 60.1 fL | Mono (9 h): 3.6% | Neu (9 h): 42.6% | PT (9 h): 11.9 s | Plat (9 h): 139.7 x10_4/uL | RBC (9 h): 595.6 x10_4/ul | Ret (9 h): 7.8% | WBC (9 h): 85.3 x10_2/uL | KIDNEY_L (9 h): 0.9 g | KIDNEY_R (9 h): 0.9 g | KIDNEY_TOTAL (9 h): 1.9 g | LIVER (9 h): 8.6 g | A/G (9 h): 0.8 | ALP (9 h): 1671 IU/L | ALT (9 h): 132.8 IU/L | AST (9 h): 365.6 IU/L | BUN (9 h): 11.8 mg/dL | CRE (9 h): 0.2 mg/dL | Ca (9 h): 10.3 mg/dL | Cl (9 h): 101.6 meq/L | DBIL (9 h): 0.7 mg/dL | GLC (9 h): 176.2 mg/dL | IP (9 h): 9.2 mg/dL | K (9 h): 4.3 meq/L | LDH (9 h): 351 IU/L | Na (9 h): 142 meq/L | PL (9 h): 173 mg/dL | RALB (9 h): 2.3 g/dL | TBIL (9 h): 1 mg/dL | TC (9 h): 85 mg/dL | TG (9 h): 45.2 mg/dL | TP (9 h): 5.1 g/dL | gamma-GTP (9 h): 7.4 IU/L | TERMINAL_BW (24 h): 197.2 g | APTT (24 h): 16.2 s | Bas (24 h): 0% | Eos (24 h): 1% | Fbg (24 h): 321.4 mg/dL | Hb (24 h): 12 g/dL | Ht (24 h): 33.2% | Lym (24 h): 52.8% | MCH (24 h): 21.6 pg | MCHC (24 h): 36% | MCV (24 h): 59.8 fL | Mono (24 h): 6.2% | Neu (24 h): 39% | PT (24 h): 11.9 s | Plat (24 h): 148.1 x10_4/uL | RBC (24 h): 554.4 x10_4/ul | Ret (24 h): 6% | WBC (24 h): 157.9 x10_2/uL | KIDNEY_L (24 h): 0.9 g | KIDNEY_R (24 h): 0.9 g | KIDNEY_TOTAL (24 h): 1.8 g | LIVER (24 h): 7.5 g | A/G (24 h): 0.8 | ALP (24 h): 3659.6 IU/L | ALT (24 h): 566.8 IU/L | AST (24 h): 1154.8 IU/L | BUN (24 h): 12 mg/dL | CRE (24 h): 0.2 mg/dL | Ca (24 h): 11 mg/dL | Cl (24 h): 102.6 meq/L | DBIL (24 h): 2.2 mg/dL | GLC (24 h): 145.6 mg/dL | IP (24 h): 8.7 mg/dL | K (24 h): 4 meq/L | LDH (24 h): 788.8 IU/L | Na (24 h): 144.2 meq/L | PL (24 h): 346.4 mg/dL | RALB (24 h): 2.4 g/dL | TBIL (24 h): 3.2 mg/dL | TC (24 h): 145.2 mg/dL | TG (24 h): 133.6 mg/dL | TP (24 h): 5.6 g/dL | gamma-GTP (24 h): 8.4 IU/L
